Experimental data taken from patent US7517873B2, “Substituted pyrimidodiazepines” (Hoffman-La Roche Inc., priority 2007, dated 2009).

Molecular target: T1, GST-PLK1 (Homo sapiens, UniProt P53350)
T1 construct: Full-length, active GST-PLK1 is purified from Sf9 insect cells; made in house; host or cells: Sf9 insect cells
Assay: Biochemical Characterization Assay: GST-PLK1 kinase HTRF assay with GST-p53 substrate
Settings: full-length GST-PLK1, GST-p53 and ATP, 37° C. for 35 minutes, HTRF signal
Procedure, shortened: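 Full-length GST-PLK1 from Sf9 cells (3 ug/mL stock) with full-length E. coli GST-p53 substrate in HEPES pH 7 buffer with MgCl2, TCEP, orthovanadate, BSA and Triton X-100; compound stocks 0.6 nM-4 mM in DMSO. Reaction 35 min at 37 °C, EDTA-stopped; phospho-p53 detected by HTRF (Eu anti-rabbit/APC anti-GST).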

T1 sequence (P53350 whole entry): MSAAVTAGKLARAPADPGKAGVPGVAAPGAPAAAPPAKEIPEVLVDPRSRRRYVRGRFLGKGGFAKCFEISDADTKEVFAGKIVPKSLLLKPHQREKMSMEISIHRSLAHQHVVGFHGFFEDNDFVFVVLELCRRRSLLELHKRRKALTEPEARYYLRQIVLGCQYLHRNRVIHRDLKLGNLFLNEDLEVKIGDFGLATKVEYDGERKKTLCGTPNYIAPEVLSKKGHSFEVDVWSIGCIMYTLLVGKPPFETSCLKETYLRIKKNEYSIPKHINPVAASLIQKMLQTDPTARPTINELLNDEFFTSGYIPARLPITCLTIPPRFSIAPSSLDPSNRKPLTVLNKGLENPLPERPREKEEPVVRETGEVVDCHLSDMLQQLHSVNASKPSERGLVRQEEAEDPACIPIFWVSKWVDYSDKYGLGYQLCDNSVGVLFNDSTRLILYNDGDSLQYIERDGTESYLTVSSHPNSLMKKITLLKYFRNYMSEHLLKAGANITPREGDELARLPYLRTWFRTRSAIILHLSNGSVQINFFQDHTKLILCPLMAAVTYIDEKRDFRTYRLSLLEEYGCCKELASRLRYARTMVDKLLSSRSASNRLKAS

Row | Structure (SMILES) | IC50 [nM]
1 | CCC1CN(C2CCCC2)c2nc(Nc3ccc(C(=O)NC4CCN(C)CC4)cc3OC)ncc2N(CC)C1=O (racemic) [I-15, (rac)-4-(9-Cyclopentyl-5,7-diethyl-6-oxo-6,7,8,9-tetrahydro-5H-pyrimido[4,5-b][1,4]diazepin-2-ylamino)-3-methoxy-N-(1-methyl-piperidin-4-yl)-benzamide] | 500 to 5000
2 | COc1cc(C(=O)Nc2ccccc2)ccc1Nc1ncc2c(n1)N(C1CCCCC1)CCC(=O)N2 [I-28, 4-(9-Cyclohexyl-6-oxo-6,7,8,9-tetrahydro-5H-pyrimido[4,5-b][1,4]diazepin-2-ylamino)-3-methoxy-N-phenyl-benzamide] | > 5000
3 | COc1cc(C(=O)NC2CCN(C)CC2)ccc1Nc1ncc2c(n1)N(C1CCCC1(C)C)CCC(=O)N2C (racemic) [I-59, (rac)-4-[9-(2,2-Dimethyl-cyclopentyl)-5-methyl-6-oxo-6,7,8,9-tetrahydro-5H-pyrimido[4,5-b][1,4]diazepin-2-ylamino]-3-methoxy-N-(1-methyl-piperidin-4-yl)-benzamide] | < 500
4 | COc1cc(C(=O)NC2CCN(C)CC2)ccc1Nc1ncc2c(n1)N(C1CCCC1)CC(CCO)C(=O)N2C (racemic) [I-49, (rac)-4-[9-Cyclopentyl-7-(2-hydroxy-ethyl)-5-methyl-6-oxo-6,7,8,9-tetrahydro-5H-pyrimido[4,5-b][1,4]diazepin-2-ylamino]-3-methoxy-N-(1-methyl-piperidin-4-yl)-benzamide] | 500 to 5000
5 | COc1cc(C(=O)NC2CCN(C)CC2)ccc1Nc1ncc2c(n1)N(Cc1ccccc1)CCC(=O)N2C [I-22, 4-(9-Benzyl-5-methyl-6-oxo-6,7,8,9-tetrahydro-5H-pyrimido[4,5-b][1,4]diazepin-2-ylamino)-3-methoxy-N-(1-methyl-piperidin-4-yl)-benzamide] | 500 to 5000
6 | COc1cc(C(=O)NC2CCN(C)CC2)ccc1Nc1ncc2c(n1)N(C1CCCC1)CCC(=O)N2 [I-21, 4-(9-Cyclopentyl-6-oxo-6,7,8,9-tetrahydro-5H-pyrimido[4,5-b][1,4]diazepin-2-ylamino)-3-methoxy-N-(1-methyl-piperidin-4-yl)-benzamide] | 500 to 5000
7 | COc1cc(C(=O)N2CCCCC2)ccc1Nc1ncc2c(n1)N(C1CCCCC1)CCC(=O)N2 [I-32, 9-Cyclohexyl-2-[2-methoxy-4-(piperidine-1-carbonyl)-phenylamino]-5,7,8,9-tetrahydro-pyrimido[4,5-b][1,4]diazepin-6-one] | > 5000
8 | COc1cc(C(=O)NC2CCN(C)CC2)ccc1Nc1ncc2c(n1)N(C1CC1)C(C)C(C)C(=O)N2C (racemic) [I-46, (rac)-4-(9-Cyclopropyl-5,7,8-trimethyl-6-oxo-6,7,8,9-tetrahydro-5H-pyrimido[4,5-b][1,4]diazepin-2-ylamino)-3-methoxy-N-(1-methyl-piperidin-4-yl)-benzamide] | < 500
9 | CC1CN(C2CCCC2)c2nc(Nc3ccc4oc(-c5ccncc5)nc4c3)ncc2N(C)C1=O (racemic) [I-76, (rac)-9-Cyclopentyl-5,7-dimethyl-2-(2-pyridin-4-yl-benzooxazol-5-ylamino)-5,7,8,9-tetrahydro-pyrimido[4,5-b][1,4]diazepin-6-one] | > 5000
10 | CN1CCC(NS(=O)(=O)c2ccc(Nc3ncc4c(n3)N(C3CCCC3)CC(C)(C)C(=O)N4C)cc2)CC1 [I-64, 4-(9-Cyclopentyl-5,7,7-trimethyl-6-oxo-6,7,8,9-tetrahydro-5H-pyrimido[4,5-b][1,4]diazepin-2-ylamino)-N-(1-methyl-piperidin-4-yl)-benzenesulfonamide] | 500 to 5000
11 | COc1cc(C(=O)NC2CCN(C)CC2)ccc1Nc1ncc2c(n1)N(C1CCC1)CC(C)C(=O)N2C (racemic) [I-52, (rac)-4-(9-Cyclobutyl-5,7-dimethyl-6-oxo-6,7,8,9-tetrahydro-5H-pyrimido[4,5-b][1,4]diazepin-2-ylamino)-3-methoxy-N-(1-methyl-piperidin-4-yl)-benzamide] | < 500
